For test [1], the target named is T1, full-length KDM4A-F185A (asKDM4A) (Homo sapiens, UniProt O75164, F185A).
T1 construct: we generated the F185A mutation in full-length KDM4A carrying all of the functional domains; host or cells: HEK293T
Description: H3K9me3 Western blot of nuclear extracts of transfected HEK293T cells. The test is classed as cell-based. The settings on record: varying concentrations (25-200 µM). Here is the method: HEK293T cells were transiently transfected with asKDM4A and treated with varying concentrations of 6A or 6B. […] To further confirm the activity of the enzyme–inhibitor pair, we performed tandem mass spectrometry of tryptic histones isolated from HEK293T cells expressing asKDM4A in the presence or absence of 100 μM 6A.
KDM4A mammalian expression plasmid in CMV vector was purchased from Addgene (plasmid #24180). KDM4B mammalian expression plasmid in CMV vector was purchased from Addgene (plasmid #24181). KDM4C mammalian expression plasmid in CMV vector was purchased from Addgene (plasmid #24214). KDM4D mammalian expression plasmid in pReciever vector was purchased from Genecopoia (EX-Z0917-M06.) KDME mammalian expression plasmid in pRP-EXP was designed from Vector Builder. The KDM4A-F185A, KDM4B-F186A, KDM4C -F187A, KDM4D-F189A, and KDM4E F186A mutants were generated using Quikchange Lightening Mutagenesis Kit (Agilent) according to manufacturer’s protocol and confirmed by Sanger […]
For the time dependent imaging, cells containing the transfected KDM4A mutant were identified by their HA signal. […] The mean signal was then measured for H3K9me3 or BrdU only within the cells expressing the KDM4A mutant. To compare changes in H3K9me3 or BrdU between trials, the quantification values were normalized to the mean signal at t=0. […]
A general note: In western blotting, separated proteins are transferred to a membrane and probed.

Another test has as its system wild type 2OG enzymes. In words: Off-target activity across wild type 2OG enzymes (MALDI-MS or dot blots). The settings on record: concentrations up to 200 μM. The test is classed as biochemical, human. The source says: We sought to examine the orthogonality of compound 6 across the human 2OG enzyme family. […] These amino acids, bulky and hydrophobic in nature, likely act as the gatekeeper and preclude binding of the NOG analogues to wild type enzymes. To test the off-target activity of 6, we recombinantly expressed the catalytic domains of 12 wild type dioxygenases, in addition to KDM4A-E, thus covering 30–40% of human 2OG enzymes known to have well-characterized substrates (Figure 3D).

In test [2] the target is T2, full-length wild type KDM4A (Homo sapiens, UniProt O75164).
T2 construct: Expression of full-length KDM4A-E and their mutants in HEK293T cells; host or cells: HEK293T
Description: H3K9me3 Western blot of nuclear extracts of transfected HEK293T cells. The settings on record: 10 μM n-octyl IOX1, Western blot. The test is classed as cell-based. Here is the method:
To test the orthogonality of NOL toward wild type KDM4A, HEK293T cells, either nontransfected or transfected with KDM4A, were individually treated with DMSO, 400 μM 6A or 10 μM n-octyl IOX1, a nonspecific inhibitor of 2OG enzymes. […] To further probe for off-target effects of 6 on endogenous 2OG enzymes, HEK293T cells were cultured with DMSO or 400 μM 6A and examined for several postsynthetic modifications catalyzed by these dioxygenases. Key trimethylated lysine marks on extracted histone were analyzed by Western blot using corresponding antibodies (Figure S31). […] Similarly, no change in prolyl hydroxylation was detected when cellular extracts were subjected to the pan hydroxyproline antibody.
KDM4A mammalian expression plasmid in CMV vector was purchased from Addgene (plasmid #24180). KDM4B mammalian expression plasmid in CMV vector was purchased from Addgene (plasmid #24181). KDM4C mammalian expression plasmid in CMV vector was purchased from Addgene (plasmid #24214). KDM4D mammalian expression plasmid in pReciever vector was purchased from Genecopoia (EX-Z0917-M06.) KDME mammalian expression plasmid in pRP-EXP was designed from Vector Builder. […]
20. Quantification of fixed-cell imaging data
TIF images obtained from confocal microscopy experiments were quantified in ImageJ. […]

“Also recorded” adds a separate entry of the source.

T1 sequence (O75164 whole entry F185A, the tested form may be a part): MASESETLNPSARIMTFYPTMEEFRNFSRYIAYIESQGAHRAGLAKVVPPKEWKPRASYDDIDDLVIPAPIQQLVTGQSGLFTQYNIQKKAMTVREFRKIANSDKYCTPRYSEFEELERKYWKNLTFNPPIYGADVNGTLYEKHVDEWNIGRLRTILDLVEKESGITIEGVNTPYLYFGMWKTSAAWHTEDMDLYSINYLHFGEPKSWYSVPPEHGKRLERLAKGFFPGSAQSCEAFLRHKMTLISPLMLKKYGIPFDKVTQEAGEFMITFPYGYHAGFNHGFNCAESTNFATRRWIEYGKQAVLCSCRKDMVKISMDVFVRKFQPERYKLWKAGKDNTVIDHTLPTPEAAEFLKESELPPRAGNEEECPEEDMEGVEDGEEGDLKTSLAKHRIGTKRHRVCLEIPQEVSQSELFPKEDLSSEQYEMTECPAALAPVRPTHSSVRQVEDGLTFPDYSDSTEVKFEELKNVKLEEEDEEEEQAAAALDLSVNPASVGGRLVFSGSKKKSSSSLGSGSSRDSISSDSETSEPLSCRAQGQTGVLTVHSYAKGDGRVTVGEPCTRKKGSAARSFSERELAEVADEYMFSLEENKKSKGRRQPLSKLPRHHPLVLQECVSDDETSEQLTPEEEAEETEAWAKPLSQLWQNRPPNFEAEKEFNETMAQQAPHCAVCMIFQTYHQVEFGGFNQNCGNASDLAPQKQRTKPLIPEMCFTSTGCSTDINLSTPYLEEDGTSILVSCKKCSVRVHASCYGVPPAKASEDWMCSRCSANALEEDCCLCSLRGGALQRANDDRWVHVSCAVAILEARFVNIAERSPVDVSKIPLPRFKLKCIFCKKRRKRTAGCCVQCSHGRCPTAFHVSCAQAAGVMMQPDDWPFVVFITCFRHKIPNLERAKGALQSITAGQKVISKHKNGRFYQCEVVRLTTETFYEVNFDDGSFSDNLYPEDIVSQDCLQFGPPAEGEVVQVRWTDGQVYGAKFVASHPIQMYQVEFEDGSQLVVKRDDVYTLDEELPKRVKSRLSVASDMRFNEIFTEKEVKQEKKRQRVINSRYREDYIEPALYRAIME
T2 sequence (O75164 whole entry): as the sequence (O75164 whole entry F185A, the tested form may be a part) above, with A185F counted along it

Consider `CCCCCCCCOC(=O)C(=O)NC(CC(C)C)C(=O)O` [6A, L-Leu octyl-ester NOG], for which the “inhibition of asKDM4A (F185A) H3K9me3 demethylation” value in test [1] is given as “Dose-dependent inhibition; also recorded: inhibited by both prodrugs in a dose-dependent manner”.

For the molecule `CC(C)CC(NC(=O)C(=O)OCc1cccc(C(F)(F)F)c1)C(=O)O` [6B, L-Leu TFMB-ester NOG], the “inhibition of asKDM4A (F185A) H3K9me3 demethylation” value in test [1] is given as “Dose-dependent inhibition; also recorded: inhibited by both prodrugs in a dose-dependent manner”.

Take `CC(C)CC(NC(=O)C(=O)O)C(=O)O` (centres unmarked) [compound 6, N-oxalyl leucine]: the “inhibition of wild type 2OG enzymes” value with wild type 2OG enzymes is on record as “did not inhibit”.

As to `CCCCCCCCOC(=O)c1ccc(O)c2ncccc12` [n-octyl IOX1], the figures for the “inhibition of wild type KDM4A H3K9me3 demethylation” value in test [2] and in test [2] (listed as IOX1) were “Inhibition” and “strongly inhibited”, respectively.

The values above are taken from publication PMC11783601, “Analogue-Sensitive Inhibition of Histone Demethylases Uncovers Member-Specific Function in Ribosomal Protein Synthesis” (Journal of the American Chemical Society, 2025).
